We go through one compound from patent publication US20180125073A1, “PESTICIDAL COMPOSITIONS AND RELATED METHODS” (priority 2015, published 2018).

The assay deals with green peach aphids (Myzus persicae). As to the kind of experiment: Pesticidal activity against green peach aphid on cabbage plants after soil treatment. The class given is in vivo. The note with it: no surfactant added. The procedure: Each tested compositions was prepared by mixing a predetermined amount of the CLOSER® SC insecticide (a sulfoxaflor concentrate having a sulfoxaflor concentration of 240 g/L) with a predetermined amount of the selected nonionic surfactant in an aqueous medium. Two nonionic surfactants were used in the study: alkyl polyglycoside AGNIQUE® PG 8107 surfactant from Cognis Corporation (C8-C10 alkyl polyglycoside with degree of polymer of 1.7), and PEG-3 tridecyl alcohol ether MAKON® TD3 surfactant from Stepan Company.
For example, the “Sulfoxaflor at 100 ppm” composition contained about 0.043% weight of sulfoxaflor based on the total weight of the composition (i.e., 100 ppm of sulfoxaflor per one gram of final soil mixture). “Sulfoxaflor at 100 ppm+AGNIQUE®” composition contained about 0.043% weight of sulfoxaflor based on the total weight of the composition (i.e., 100 ppm of sulfoxaflor per one gram of final soil mixture), and about 0.225% weight of alkyl polyglycoside AGNIQUE® PG 8107 surfactant based on the total weight of the composition (i.e., 384 ppm per one gram of the final soil mixture; 1500 ppm per one gram of the total soil liquid).
The imidacloprid pesticide PROVADO® 1.6 from Bayer CropScience LP (North Carolina, USA) was used as a standard commercial pesticidal composition for aphid control. The imidacloprid pesticide PROVADO® 1.6 was tested at three different loadings: 100 ppm, 25 ppm, and 6.25 ppm per gram of final soil mixture.
In this EXAMPLE 7, water was tested as a control composition. Furthermore, an aqueous solution of alkyl polyglycoside AGNIQUE® PG 8107 surfactant and an aqueous solution of PEG-3 tridecyl alcohol ether MAKON® TD3 surfactant were tested. […]
Each of the 1-ounce clear cups was filled with about 30 grams of the inoculated Midwest field soil having the components as shown in TABLE 7. […] The soil moisture of the Midwest field soil was about 15% as measured by Mettler LJ16 Moisture Analyzer (15 minutes and 100° C.). […]

`C[C@@H](c1ccc(C(F)(F)F)nc1)[S@@](C)(=O)=NC#N` (racemic) [Sulfoxaflor, [methyl(oxo) {1-[6-(trifluoromethyl)-3-pyridyl]ethyl}-λ^6-sulfanylidene]cyanamide]: the “number of live GPA aphids on cabbage plant” value was “about 38” (DAT of 21 days, loading 6.25 ppm); “no live GPA aphid” (DAT of 21 days, loading 100 ppm per gram of final soil mixture); “no live GPA aphid” (DAT of 28 days, sulfoxaflor 100 ppm).
